According to article PMC6222706, “Evaluation of the Antioxidant and Neuroprotectant Activities of New Asymmetrical 1,3-Diketones” (Molecules : A Journal of Synthetic Chemistry and Natural …, 2018):

Legend:
[1] = Chemical stability in 10 mM PBS; assay type: physicochemical; details: 6b, 7b at 400 µM, curcumin at 50 µM
Procedure: It is also important to know compound integrity at those concentrations used in biological assays, and for that, the chemical stability was determined in 10 mM PBS after 6 h, 24 h and 48 h.
In parallel compound saturation solutions were obtained and filtered from 20 mM compound stock in DMSO. So, 10 µL of 20 mM stock solution were dispensed to 190 µL of PBS 10 mM. The solutions were mixed, shaken in a microplate shaker for two hours, and then 160 µL of each solution were filtered and transferred to a new well plate for UV absorption measure. The compound stability in PBS 10 mM was determined at 24, 48 and 72 h with solutions prepared as those for the compound calibration curve.

[2] = Iron chelation capacity (Fe^+2-ferrozine complex); assay type: biochemical; details: aqueous media; for Fe^2+ binding capacity: 50 µM compound; for Fe^2+ chelating capacity: 200 µM compound
Procedure: To decrease the level of free Fe^2+ that can reduce H2O2 to the ^•OH radical and produce other ROS, it is worth to evaluate the iron chelation capacity of new potential AOX compounds as potential new therapeutic agents against neurodegenerative diseases. […] In this assay ferrozine form complexes with Fe^+2 in a quantitative manner, and in the presence of chelating compounds this complex is disrupted.
The iron chelation capacity was determined according to the method of Dinis et al., using ferrous chloride instead of ferrous sulfate. In this method, ferrozine can form complexes with a ferrous ion in a quantitative way yielding a red color with maximum absorbance at 562 nm. In the presence of other iron chelators, a decoloration is observed due to the competition with ferrozine for the metal. The assay was carried out in a 96 well plate. Serial dilutions of test compound (0, 5, 10, 25, 50, 100, 150, 200 µM) were dispensed (180 µL) into each well and then 10 µL of FeCl2 1 mM were added (final FeCl2 concentration, […]). After shaking the plate for 1 min, 10 µL of Ferrozine 2 mM were added. The mixture was shaken thoroughly and left to stand for 20 min at room temperature. The absorbance was measured at 562 nm with a Varioskan microplate reader. […] The compound iron chelation activity was calculated as the percentage of inhibition of the Fe^+2-Ferrozine complex by the formula in Equation (3):%Inhibition = {(Ao − As)/Ao} × 100(3) where Ao is the absorbance of the control, and As is the absorbance in the presence of the test compound. EDTA was used as a positive control. All the experiments were performed three times by quadruplicate for each compound concentration.

[3] = Cytotoxicity in SH-SY5Y cells (MTT); assay type: cell-based; details: human, SH-SY5Y neuronal cells, concentration reducing cell viability to 50% of control
Procedure: So, to study the neuroprotectant potential of β-diketones in the SH-SY5Y cell line, we firstly need to determine their cytotoxicity in the same cellular model. […] In addition to that, within each series, the introduction of a second fluorine atom in the left-hand side phenyl ring decreases also the cytotoxicity.
SH-SY5Y cells were seeded into 96-well plates at a density of 5 × 10^3 cells/well and grown in the incubator for 24 h. All compounds tested were dissolved and eventually further diluted in dimethylsulfoxide (DMSO). After overnight incubation, the cells were treated with different test concentrations (5, 10, 20, 50, 100, 150, 200 µM) in a final volume of 200 µL with four replicates each. […] Cell proliferation or viability was measured using the 3-(4,5-dimethylthiazol-2-yl)-2,5-diphenyl tetrazolium bromide (MTT) assay. After 24 h, 20 µL of MTT (5 mg/mL) was added to each well and the plate was incubated at 37 °C in the dark for 2 h. Supernatants were removed and the formazan crystals were solubilized in DMSO (200 µL/well), under 10 min shaking at room temperature. The reduction of MTT was quantified by absorbance at 570 nm Varioskan microplate reader (Thermo Fisher Scientific, Vantaa, Finland). Effects of the test compounds on cell viability were calculated using cells treated with vehicle as control. The data were subjected to linear regression analysis and the regression lines were plotted for the best fit. The IC50 (inhibition of cell viability) concentrations were calculated using the respective dose-response curves.

SH-SY5Y cells = experiment: Mitochondrial membrane potential (JC-1, microplate reader) in SH-SY5Y cells under H2O2; assay type: cell-based, human; details: SH-SY5Y, compound at different concentrations for 24 h, then 200 µM H2O2 for 24 h, JC-1
Procedure: To know whether β-diketones 6b and 7b will protect the mitochondrial membrane from depolarization under oxidative stress conditions, MMP experiments were carried out with the cationic dye JC-1 (5,5′,6,6′-tetrachloro-1,1′,3,3′-tetraethylbenzimi-dazolylcarbocyanine iodide). JC-1 enters selectively into mitochondria and reversibly change color from red to green as the membrane potential decrease. In healthy cells, JC-1 forms red fluorescent J-aggregates while in apoptotic cells with low MMP, JC-1 remains as monomers with green fluorescence. The ratio of J-aggregates to J-monomers is an indication of healthy non-apoptotic cells.
The fluorescent dye 5,5′,6,6′-tetrachloro-1,1′,3,3′-tetraethylbenzimidazolylcarbocyanine iodide (JC-1) was used for measuring MMP [111]. A decrease in fluorescence intensity represents mitochondrial membrane depolarization. For fluorescence ratio detection under oxidative stress conditions, 96 well plates were seeded with 3 × 10^3 SH-SY5Y cells and after 24 h incubation they were treated with test compound and left out for 24 h. Then, cells were exposed to different H2O2 concentrations for 24 h. After the incubation period, cells were washed twice with Hanks buffer and then stained with 5 µM JC-1 in culture media in dark, in a CO2 incubator at 37 °C for 20 min. At the end of the dye incubation period, cells were washed three times with Hanks buffer and 200 µL of fresh buffer was added. Cells were analyzed with a Varioskan microplate reader. J-aggregates red fluorescence intensity was measured at 535 nm excitation and 595 nm emission wavelength, while excitation at 485 nm and emission 535 nm wavelength was used for J-monomers green fluorescence. Results were expressed as the ratio of fluorescence intensity of J-aggregates to J-monomers. […] JC-1 aggregates show red fluorescence (peak emission at 590 nm) measured in the FL2 channel. Thus, healthy non-apoptotic cells are detected in both FL1 and FL2 channels, while cells with disrupted mitochondrial function show fluorescence in FL1 channel but reduced FL2 intensity.

| Compound | Remaining Compound (%) 0 h [1] [%] | Remaining Compound (%) 6 h [1] [%] | Remaining Compound (%) 24 h [1] [%] | Remaining Compound (%) 48 h [1] [%] | Fe^2+ binding capacity [2] | Fe^2+ chelating capacity [2] | IC50 at 24 h [3] [µM] | MMP recovery (SH-SY5Y cells) |
| --- | --- | --- | --- | --- | --- | --- | --- | --- |
| O=C(/C=C(O)/C=C/c1ccc(O)c(F)c1F)C(F)(F)F [Compound 7b, (3Z,5E)-6-(2,3-Difluoro-4-hydroxyphenyl)-1,1,1-trifluoro-4-hydroxyhexa-3,5-dien-2-one] | 100 | 95.7 ± 1.0 | 90.9 ± 1.2 | 87.8 ± 2.3 | 7–8% | 25–26% | 200 ± 17.1 | 18–25% |
| O=C(/C=C(O)/C=C/c1cc(F)c(O)cc1F)C(F)(F)F [Compound 6b, (3Z,5E)-6-(2,5-difluoro-4-hydroxyphenyl)-1,1,1-trifluoro-4-hydroxyhexa-3,5-dien-2-one] | 100 | 96.1 ± 0.5 | 92.2 ± 1.6 | 90.4 ± 3.0 | 7–8% | 25–26% | 187 ± 13.2 | 18–25% |
